Experimental data: PubChem BioAssay AID248 (DTP/NCI, 2004)
Where “and” joins values, the source holds several entries; their conditions need not be identical. Equal entries are not always repeated. Toxic doses and inconclusive results are not listed. No stated cut-off is given here; in the data, active means T/C of 150% or more; inactive means T/C below 125%.

Test system: L1210 leukemia ip in BDF1 mice, survival T/C
Experiment: NCI In Vivo Anticancer Drug Screen. Data for tumor model L1210 Leukemia (intraperitoneal) in B6D2F1 (BDF1) mice
Conditions: endpoint: mean survival time, higher = longer survival
How it was run: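 In this screen, tumor-bearing mice given compound are compared to those given vehicle, and their survival values are reported as a treated-to-control quotient.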

[1] = dose: 100.0 mg/kg/injection, schedule: Q01DX001 (ip), vehicle: saline
[2] = dose: 200.0 mg/kg/injection, schedule: Q01DX001 (ip), vehicle: saline
[3] = dose: 50.0 mg/kg/injection, schedule: Q01DX009 (ip), vehicle: Klucel (hydroxypropylcellulose) (HPC)
[4] = dose: 100.0 mg/kg/injection, schedule: Q01DX009 (ip), vehicle: Klucel (hydroxypropylcellulose) (HPC)
[5] = dose: 100.0 mg/kg/injection, schedule: Q04DX003 (ip), vehicle: saline with Tween-80
[6] = dose: 200.0 mg/kg/injection, schedule: Q04DX003 (ip), vehicle: saline with Tween-80
[7] = dose: 400.0 mg/kg/injection, schedule: Q04DX003 (ip), vehicle: saline with Tween-80
[8] = dose: 100.0 mg/kg/injection, schedule: Q01DX009 (ip), vehicle: saline with Tween-80
[9] = dose: 200.0 mg/kg/injection, schedule: Q01DX009 (ip), vehicle: saline with Tween-80
[10] = dose: 400.0 mg/kg/injection, schedule: Q01DX009 (ip), vehicle: saline with Tween-80

Measured: T/C

Cc1cc(N=Nc2ccccc2)c2cccnc2c1N
inactive: dose: 50.0 mg/kg/injection, schedule: Q04DX003 (ip), vehicle: DMSO 91 % of control | dose: 100.0 mg/kg/injection, schedule: Q04DX003 (ip), vehicle: DMSO 97 % of control

CC(NC(=O)C(NC(=O)c1cnc2ccccc2n1)C(C)C)C(=O)O (stereo not drawn)
inactive: [1] 94 % of control | dose: 100.0 mg/kg/injection, schedule: Q04DX003 (ip), vehicle: acetone 99 % of control | [2] 104 % of control | dose: 200.0 mg/kg/injection, schedule: Q04DX003 (ip), vehicle: acetone 103 % of control | dose: 400.0 mg/kg/injection, schedule: Q01DX001 (ip), vehicle: saline 96 % of control | dose: 400.0 mg/kg/injection, schedule: Q04DX003 (ip), vehicle: acetone 99 % of control

CC1C=CC(c2ccccc2)C2C(=O)OC(=O)C12 (stereo not drawn)
inactive: [3] 111 % of control | [4] 101 % of control

C1CC2C3CCC(C3)C2C1 (stereo not drawn)
inactive: [5] 94 % of control | [6] 90 % of control | [7] 97 % of control

CCOC(=O)c1c[nH]c2cc([N+](=O)[O-])ccc2c1=O
inactive: dose: 25.0 mg/kg/injection, schedule: Q04DX003 (ip), vehicle: saline with Tween-80 91 % of control | dose: 50.0 mg/kg/injection, schedule: Q04DX003 (ip), vehicle: saline with Tween-80 86 % of control

Cc1cc(Cl)cc(C)c1OC(=O)Nc1cccc(C(F)(F)F)c1
inactive: [8] 112 % of control | [9] 106 % of control | [10] 101 % of control

CCCC/C=C/C1C=CCCC1 (stereo not drawn)
inactive: dose: 50.0 mg/kg/injection, schedule: Q01DX009 (ip), vehicle: other 100 % of control | dose: 100.0 mg/kg/injection, schedule: Q01DX009 (ip), vehicle: other 95 % of control | dose: 200.0 mg/kg/injection, schedule: Q01DX009 (ip), vehicle: other 100 % of control

CCOC(=O)/C(C#N)=C\c1ccc(OCC)c(OCC)c1
inactive: dose: 100.0 mg/kg/injection, schedule: Q01DX Z (ip), vehicle: methylcellulose (MC) 101 % of control | dose: 200.0 mg/kg/injection, schedule: Q01DX Z (ip), vehicle: methylcellulose (MC) 100 % of control

CC(=O)c1ccc2c(c1)sc1ccccc12
inactive: dose: 50.0 mg/kg/injection, schedule: Q01DX001 (ip), vehicle: other 96 % of control | dose: 100.0 mg/kg/injection, schedule: Q01DX001 (ip), vehicle: other 96 % of control | dose: 200.0 mg/kg/injection, schedule: Q01DX001 (ip), vehicle: other 96 % of control | dose: 400.0 mg/kg/injection, schedule: Q01DX001 (ip), vehicle: other 87 % of control

O=c1cc(Nc2cccc3cc4ccccc4cc23)[nH]c(=O)[nH]1
inactive: dose: 38.0 mg/kg/injection, schedule: Q01DX001 (ip), vehicle: Klucel (hydroxypropylcellulose) (HPC) 93 % of control | dose: 75.0 mg/kg/injection, schedule: Q01DX001 (ip), vehicle: Klucel (hydroxypropylcellulose) (HPC) 93 % of control | dose: 150.0 mg/kg/injection, schedule: Q01DX001 (ip), vehicle: Klucel (hydroxypropylcellulose) (HPC) 90 % of control

NCCc1cnc[nH]1
inactive: dose: 50.0 mg/kg/injection, schedule: Q01DX009 (ip), vehicle: saline 89 % of control | dose: 100.0 mg/kg/injection, schedule: Q01DX009 (ip), vehicle: saline 106 % of control | dose: 200.0 mg/kg/injection, schedule: Q01DX009 (ip), vehicle: saline 89 % of control

[O-][n+]1onc2ccc(Cl)cc21
inactive: dose: 25.0 mg/kg/injection, schedule: Q01DX009 (ip), vehicle: Klucel (hydroxypropylcellulose) (HPC) 101 % of control | [3] 98 % of control | [4] 95 % of control

CCCCCCc1cccc(C)n1
inactive: [1] 94 % of control | [2] 92 % of control

CCCCc1c(C)nc(N)nc1N
inactive: dose: 3.12 mg/kg/injection, schedule: Q01DX001 (ip), vehicle: Klucel (hydroxypropylcellulose) (HPC) 105 % of control | dose: 6.25 mg/kg/injection, schedule: Q01DX001 (ip), vehicle: Klucel (hydroxypropylcellulose) (HPC) 110 % of control | dose: 12.5 mg/kg/injection, schedule: Q01DX001 (ip), vehicle: Klucel (hydroxypropylcellulose) (HPC) 111 % of control | dose: 25.0 mg/kg/injection, schedule: Q01DX001 (ip), vehicle: saline 98 % of control

O=C(O)c1ccc(NCCO)cc1
inactive: dose: 75.0 mg/kg/injection, schedule: Q01DX009 (ip), vehicle: Klucel (hydroxypropylcellulose) (HPC) 102 % of control | dose: 150.0 mg/kg/injection, schedule: Q01DX009 (ip), vehicle: Klucel (hydroxypropylcellulose) (HPC) 90 % of control | dose: 300.0 mg/kg/injection, schedule: Q01DX009 (ip), vehicle: Klucel (hydroxypropylcellulose) (HPC) 90 % of control

COC(=O)C(CCc1cc(OC)c(OC)c(OC)c1)C(C(=O)OC)C(=O)OC (stereo not drawn)
inactive: dose: 100.0 mg/kg/injection, schedule: Q04DX003 (ip), vehicle: Klucel (hydroxypropylcellulose) (HPC) 87 % of control | dose: 200.0 mg/kg/injection, schedule: Q04DX003 (ip), vehicle: Klucel (hydroxypropylcellulose) (HPC) 94 % of control | dose: 400.0 mg/kg/injection, schedule: Q04DX003 (ip), vehicle: Klucel (hydroxypropylcellulose) (HPC) 89 % of control

CCc1ccc(/C=C/c2ccc[nH]2)[n+](C)c1
inactive: dose: 5.0 mg/kg/injection, schedule: Q01DX001 (ip), vehicle: carboxymethylcellulose (CMC) 94 % of control | dose: 10.0 mg/kg/injection, schedule: Q01DX001 (ip), vehicle: carboxymethylcellulose (CMC) 94 % of control | dose: 20.0 mg/kg/injection, schedule: Q01DX001 (ip), vehicle: carboxymethylcellulose (CMC) 89 % of control | dose: 40.0 mg/kg/injection, schedule: Q01DX001 (ip), vehicle: carboxymethylcellulose (CMC) 96 % of control | dose: 80.0 mg/kg/injection, schedule: Q01DX001 (ip), vehicle: carboxymethylcellulose (CMC) 91 % of control

O=C(NCCCC1C2CCC(C2)C1CNC(=O)Nc1cccc(Cl)c1)Nc1cccc(Cl)c1 (stereo not drawn)
inactive: [5] 91 % of control | [6] 92 % of control | [7] 87 % of control

CCCCCC[As](=O)(O)O
inactive: dose: 1.5 mg/kg/injection, schedule: Q01DX001 (ip), vehicle: carboxymethylcellulose (CMC) 98 % of control | dose: 3.0 mg/kg/injection, schedule: Q01DX001 (ip), vehicle: carboxymethylcellulose (CMC) 93 % of control | dose: 6.0 mg/kg/injection, schedule: Q01DX001 (ip), vehicle: carboxymethylcellulose (CMC) 102 % of control

CCCNCCCCCCNCCC
inactive: dose: 100.0 mg/kg/injection, schedule: Q04DX003 (ip), vehicle: saline 98 % of control

CC(=O)n1ncc2ccc([N+](=O)[O-])cc21
inactive: dose: 100.0 mg/kg/injection, schedule: Q01DX009 (ip), vehicle: water 105 % of control | dose: 100.0 mg/kg/injection, schedule: Q04DX003 (ip), vehicle: water 93 % of control | dose: 200.0 mg/kg/injection, schedule: Q01DX009 (ip), vehicle: water 105 % of control | dose: 200.0 mg/kg/injection, schedule: Q04DX003 (ip), vehicle: water 100 % of control | dose: 400.0 mg/kg/injection, schedule: Q01DX009 (ip), vehicle: water 107 % of control | dose: 400.0 mg/kg/injection, schedule: Q04DX003 (ip), vehicle: water 96 % of control

CC1(Br)C(=O)NC(=O)NC1O (stereo not drawn)
inactive: [3] 98 % of control | [4] 94 % of control | dose: 200.0 mg/kg/injection, schedule: Q01DX009 (ip), vehicle: Klucel (hydroxypropylcellulose) (HPC) 94 % of control

O=C(/C=C/c1ccccc1)NC(=S)Nc1ccc(O)cc1
inactive: dose: 100.0 mg/kg/injection, schedule: Q01DX001 (ip), vehicle: saline with Tween-80 96 % of control | [8] 95 % of control and 107 % of control | dose: 100.0 mg/kg/injection, schedule: Q04DX002 (ip), vehicle: saline with Tween-80 111 % of control and 88 % of control | dose: 200.0 mg/kg/injection, schedule: Q01DX001 (ip), vehicle: saline with Tween-80 98 % of control | [9] 96 % of control and 92 % of control | dose: 200.0 mg/kg/injection, schedule: Q04DX002 (ip), vehicle: saline with Tween-80 95 % of control and 111 % of control | dose: 400.0 mg/kg/injection, schedule: Q01DX001 (ip), vehicle: saline with Tween-80 96 % of control | [10] 101 % of control | dose: 400.0 mg/kg/injection, schedule: Q04DX002 (ip), vehicle: saline with Tween-80 95 % of control
